Source: ChEMBL document CHEMBL3243951, “Relationship between structure and antineoplastic activity of arylsulfonylhydrazones of 2-formylprydine N-oxide” (J Med Chem, 1978)

Tests used:
Sarcoma-180 [1] = assay: Antineoplastic activity against mouse sarcoma 180 cells allografted in CD-1 mouse assessed as increase in survival rate at 60 mg/kg, qd administered for 6 days relative to control; format: functional
L1210 [2] = assay: Antineoplastic activity against mouse L1210 cells allografted in BDF1 mouse assessed as survival time at 80 mg/kg, qd administered for 6 days (reference value: 8.4 days); format: functional
Mus musculus [3] = assay: Toxicity in CD-1 mouse allografted with mouse sarcoma 180 cells assessed as change in body weight at 60 mg/kg, qd administered for 6 days measured during compound treatment (reference value: 30.2%); format: organism-based; set-up: dose 60 mg/kg; conditions: in vivo, 144 h
Mus musculus [4] = assay: Toxicity in BDF1 mouse allografted with mouse L1210 cells assessed as change in body weight at 80 mg/kg, qd administered for 6 days measured during compound treatment (reference value: 14.8%); format: organism-based; set-up: dose 80 mg/kg; conditions: in vivo, 144 h
Sarcoma-180 [5] = assay: Antineoplastic activity against mouse sarcoma 180 cells allografted in CD-1 mouse assessed as 50 day survivors at 60 mg/kg, qd administered for 6 days relative to control; format: functional
Mus musculus [6] = assay: Toxicity in CD-1 mouse allografted with mouse sarcoma 180 cells assessed as change in body weight at 40 mg/kg, qd administered for 6 days measured during compound treatment (reference value: 30.2%); format: organism-based; set-up: dose 40 mg/kg; conditions: in vivo, 144 h
Sarcoma-180 [7] = assay: Antineoplastic activity against mouse sarcoma 180 cells allografted in CD-1 mouse assessed as 50 day survivors at 40 mg/kg, qd administered for 6 days relative to control; format: functional
Sarcoma-180 [8] = assay: Antineoplastic activity against mouse sarcoma 180 cells allografted in CD-1 mouse assessed as increase in survival rate at 40 mg/kg, qd administered for 6 days relative to control; format: functional
Sarcoma-180 [9] = assay: Antineoplastic activity against mouse sarcoma 180 cells allografted in CD-1 mouse assessed as increase in survival rate at 80 mg/kg, qd administered for 6 days relative to control; format: functional
Mus musculus [10] = assay: Toxicity in CD-1 mouse allografted with mouse sarcoma 180 cells assessed as change in body weight at 80 mg/kg, qd administered for 6 days measured during compound treatment (reference value: 30.2%); format: organism-based; set-up: dose 80 mg/kg; conditions: in vivo, 144 h
Sarcoma-180 [11] = assay: Antineoplastic activity against mouse sarcoma 180 cells allografted in CD-1 mouse assessed as 50 day survivors at 80 mg/kg, qd administered for 6 days relative to control; format: functional
Mus musculus [12] = assay: Toxicity in BDF1 mouse allografted with mouse L1210 cells assessed as change in body weight at 100 mg/kg, qd administered for 6 days measured during compound treatment (reference value: 14.8%); format: organism-based; set-up: dose 100 mg/kg; conditions: in vivo, 144 h
L1210 [13] = assay: Antineoplastic activity against mouse L1210 cells allografted in BDF1 mouse assessed as survival time at 100 mg/kg, qd administered for 6 days (reference value: 8.4 days); format: functional
L1210 [14] = assay: Antineoplastic activity against mouse L1210 cells allografted in BDF1 mouse assessed as survival time at 60 mg/kg, qd administered for 6 days (reference value: 8.4 days); format: functional
Mus musculus [15] = assay: Toxicity in BDF1 mouse allografted with mouse L1210 cells assessed as change in body weight at 60 mg/kg, qd administered for 6 days measured during compound treatment (reference value: 14.8%); format: organism-based; set-up: dose 60 mg/kg; conditions: in vivo, 144 h
Mus musculus [16] = assay: Toxicity in CD-1 mouse allografted with mouse sarcoma 180 cells assessed as change in body weight at 20 mg/kg, qd administered for 6 days measured during compound treatment (reference value: 30.2%); format: organism-based; set-up: dose 20 mg/kg; conditions: in vivo, 144 h
Sarcoma-180 [17] = assay: Antineoplastic activity against mouse sarcoma 180 cells allografted in CD-1 mouse assessed as increase in survival rate at 20 mg/kg, qd administered for 6 days relative to control; format: functional
Sarcoma-180 [18] = assay: Antineoplastic activity against mouse sarcoma 180 cells allografted in CD-1 mouse assessed as 50 day survivors at 20 mg/kg, qd administered for 6 days relative to control; format: functional

Q: With Cc1ccc(S(=O)(=O)N/N=C/c2cccc[n+]2[O-])cc1 as the molecule, how does the T/C (Sarcoma-180 [1]) read?
A: Its T/C is 307%.

Q: What about the Survival (L1210 [2]) of the same molecule?
A: Its Survival is 14.3 days.

Q: And the Activity (Mus musculus [3])?
A: The Activity was -8%.

Q: And the Activity (Mus musculus [4])?
A: The Activity was -7.4%.

Q: What about the survival at 60 mg/kg (Sarcoma-180 [5]) of the same molecule?
A: The survival at 60 mg/kg was 0%.

Q: With O=S(=O)(N/N=C/c1cccc[n+]1[O-])c1ccccc1 as the molecule, how does the Survival (L1210 [2]) read?
A: Its Survival is 10.6 days.

Q: And the Activity (Mus musculus [6])?
A: Its Activity is -5.2%.

Q: And the survival at 40 mg/kg (Sarcoma-180 [7])?
A: Its survival at 40 mg/kg is 20%.

Q: And the Activity (Mus musculus [4])?
A: The Activity was -8%.

Q: What about the T/C (Sarcoma-180 [8]) of the same molecule?
A: The T/C was 339%.

Q: How did the T/C (Sarcoma-180 [9]) turn out when COc1ccc(S(=O)(=O)N/N=C/c2cccc[n+]2[O-])cc1 was run?
A: Its T/C is 356%.

Q: What about the Survival (L1210 [2]) of the same molecule?
A: Its Survival is 19.7 days.

Q: What about the Activity (Mus musculus [10]) of the same molecule?
A: Its Activity is -11.6%.

Q: And the Activity (Mus musculus [4])?
A: Its Activity is -4.9%.

Q: What about the survival at 80 mg/kg (Sarcoma-180 [11]) of the same molecule?
A: The survival at 80 mg/kg was 40%.

Q: Cc1ccccc1S(=O)(=O)N/N=C/c1cccc[n+]1[O-] was tested. Which Activity (Mus musculus [12]) did it give?
A: The Activity was -11.1%.

Q: And the T/C (Sarcoma-180 [1])?
A: Its T/C is 285%.

Q: What about the Activity (Mus musculus [3]) of the same molecule?
A: The Activity was -1.9%.

Q: And the Survival (L1210 [13])?
A: Its Survival is 19.9 days.

Q: And the survival at 60 mg/kg (Sarcoma-180 [5])?
A: The survival at 60 mg/kg was 0%.

Q: How did the T/C (Sarcoma-180 [1]) turn out when O=[N+]([O-])c1cccc(S(=O)(=O)N/N=C/c2cccc[n+]2[O-])c1 was run?
A: Its T/C is 390%.

Q: And the Survival (L1210 [2])?
A: Its Survival is 12.4 days.

Q: What about the Activity (Mus musculus [3]) of the same molecule?
A: Its Activity is -7.5%.

Q: What about the Activity (Mus musculus [4]) of the same molecule?
A: Its Activity is -5.4%.

Q: And the survival at 60 mg/kg (Sarcoma-180 [5])?
A: The survival at 60 mg/kg was 60%.

Q: Which T/C (Sarcoma-180 [9]) does the source give for O=[N+]([O-])c1ccc(S(=O)(=O)N/N=C/c2cccc[n+]2[O-])cc1 here?
A: Its T/C is 345%.

Q: What about the Activity (Mus musculus [10]) of the same molecule?
A: The Activity was -7.1%.

Q: What about the survival at 80 mg/kg (Sarcoma-180 [11]) of the same molecule?
A: The survival at 80 mg/kg was 10%.

Q: Nc1cccc(S(=O)(=O)N/N=C/c2cccc[n+]2[O-])c1 was tested. Which T/C (Sarcoma-180 [9]) did it give?
A: Its T/C is 364%.

Q: And the Activity (Mus musculus [10])?
A: The Activity was -10.3%.

Q: What about the survival at 80 mg/kg (Sarcoma-180 [11]) of the same molecule?
A: Its survival at 80 mg/kg is 0%.

Q: Which T/C (Sarcoma-180 [1]) does the source give for Nc1ccc(S(=O)(=O)N/N=C/c2cccc[n+]2[O-])cc1 here?
A: The T/C was 276%.

Q: What about the Activity (Mus musculus [3]) of the same molecule?
A: Its Activity is 2.4%.

Q: What about the survival at 60 mg/kg (Sarcoma-180 [5]) of the same molecule?
A: The survival at 60 mg/kg was 0%.

Q: Which results are given for O=S(=O)(N/N=C/c1cccc[n+]1[O-])c1ccc(Cl)cc1?
A: Activity (Mus musculus [6]): -0.6%; survival at 40 mg/kg (Sarcoma-180 [7]): 0%; T/C (Sarcoma-180 [8]): 260%

Q: What does the source list for O=S(=O)(N/N=C/c1cccc[n+]1[O-])c1ccc(Br)cc1?
A: Activity (Mus musculus [6]): -3.5%; survival at 40 mg/kg (Sarcoma-180 [7]): 0%; T/C (Sarcoma-180 [8]): 240%

Q: O=S(=O)(N/N=C/c1cccc[n+]1[O-])c1ccc(F)cc1 was tested. Which Survival (L1210 [14]) did it give?
A: The Survival was 11.8 days.

Q: And the Activity (Mus musculus [15])?
A: Its Activity is 1.6%.

Q: What about the T/C (Sarcoma-180 [1]) of the same molecule?
A: The T/C was 337%.

Q: And the Activity (Mus musculus [3])?
A: Its Activity is -5.7%.

Q: What about the survival at 60 mg/kg (Sarcoma-180 [5]) of the same molecule?
A: The survival at 60 mg/kg was 20%.

Q: Which Activity (Mus musculus [16]) does the source give for O=S(=O)(N/N=C/c1cc(Cl)cc[n+]1[O-])c1ccccc1 here?
A: The Activity was 10.8%.

Q: And the T/C (Sarcoma-180 [17])?
A: Its T/C is 156%.

Q: And the survival at 20 mg/kg (Sarcoma-180 [18])?
A: The survival at 20 mg/kg was 0%.

Q: O=[N+]([O-])c1cc[n+]([O-])c(/C=N/NS(=O)(=O)c2ccccc2)c1 was tested. Which T/C (Sarcoma-180 [1]) did it give?
A: Its T/C is 293%.

Q: And the Activity (Mus musculus [3])?
A: The Activity was -5.4%.

Q: What about the survival at 60 mg/kg (Sarcoma-180 [5]) of the same molecule?
A: The survival at 60 mg/kg was 0%.

Q: What does the source list for O=S(=O)(N/N=C/c1cc(N2CCOCC2)cc[n+]1[O-])c1ccccc1?
A: Activity (Mus musculus [16]): 1.4%; T/C (Sarcoma-180 [17]): 242%; survival at 20 mg/kg (Sarcoma-180 [18]): 0%

Q: For C/C(=N\NS(=O)(=O)c1ccccc1)c1cccc[n+]1[O-], which T/C (Sarcoma-180 [1]) is on record?
A: Its T/C is 130%.

Q: What about the Activity (Mus musculus [3]) of the same molecule?
A: Its Activity is 23.5%.

Q: What about the survival at 60 mg/kg (Sarcoma-180 [5]) of the same molecule?
A: The survival at 60 mg/kg was 0%.

Q: How did the Activity (Mus musculus [6]) turn out when O=C(NNS(=O)(=O)c1ccccc1)c1cccc[n+]1[O-] was run?
A: The Activity was 20.7%.

Q: What about the survival at 40 mg/kg (Sarcoma-180 [7]) of the same molecule?
A: Its survival at 40 mg/kg is 0%.

Q: What about the T/C (Sarcoma-180 [8]) of the same molecule?
A: The T/C was 107%.

Q: Which results are given for O=S(=O)(N/N=C/c1cccc[n+]1[O-])c1cccnc1?
A: T/C (Sarcoma-180 [1]): 276%; Activity (Mus musculus [3]): 0%; survival at 60 mg/kg (Sarcoma-180 [5]): 0%

Q: How did the T/C (Sarcoma-180 [1]) turn out when O=S(=O)(N/N=C/c1cccc[n+]1[O-])c1cccc2ccccc12 was run?
A: Its T/C is 261%.

Q: And the Activity (Mus musculus [3])?
A: Its Activity is -3.4%.

Q: And the survival at 60 mg/kg (Sarcoma-180 [5])?
A: Its survival at 60 mg/kg is 0%.

Q: How did the T/C (Sarcoma-180 [1]) turn out when O=S(=O)(N/N=C/c1cccc[n+]1[O-])c1ccc2ccccc2c1 was run?
A: Its T/C is 308%.

Q: And the Activity (Mus musculus [3])?
A: Its Activity is -1.2%.

Q: And the survival at 60 mg/kg (Sarcoma-180 [5])?
A: Its survival at 60 mg/kg is 0%.

Q: Which Activity (Mus musculus [6]) does the source give for O=S(=O)(N/N=C/c1cccc[n+]1[O-])c1ccc2c(c1)Cc1ccccc1-2 here?
A: The Activity was -4.7%.

Q: And the survival at 40 mg/kg (Sarcoma-180 [7])?
A: Its survival at 40 mg/kg is 0%.

Q: What about the T/C (Sarcoma-180 [8]) of the same molecule?
A: Its T/C is 276%.
